Laboratory results taken from patent US10359430B2, “Selective near-infrared optical imaging of necrotic cells and simultaneous cell fixing and counter staining with metallacrown complexes” (THE REGENTS OF THE UNIVERSITY OF MICHIGAN, priority 2015, dated 2019).
Blank lines part the entries; values can stand above or below the molecule they belong to.

What was measured:
[1] = Photostability stress tests; assay type: physicochemical
Procedure: Photostability stress tests of Yb^3+[Zn(II)MCpyzHA] (Yb λem=980 nm) and Nd^3+[Zn(II)MCpyzHA] (Nd λem=1064 nm) and the commercially available dye for necrotic cells (Propidium Iodide) were performed. The complexes (150 μM) or dye (50 μM) were dissolved in water and the complexes were also dissolved in OPTI-MEM® media. The MC solutions were exposed to 5 hours of UV radiation (377 nm). The propidium iodide solution was exposed to 5 hours of UV radiation (530 nm).

HeLa cells [2] = assay: NIR epifluorescence microscopy of HeLa cells (necrotic cell labelling, simultaneous staining and fixing); assay type: cell-based, Human
[3] = Photophysical parameters in OPTI-MEM media, cell supernatant and HeLa cells; assay type: physicochemical
Procedure: The Yb^3+[Zn(II)MCpyzHA] complexes were dissolved in OPTI-MEM® medium with 2% SVF (without cells) and were incorporated in HeLa cells, both with and without exposure to UV light. The results in are shown in FIG. 20, (A) (corrected and normalized excitation) and FIG. 20, (B) (corrected and normalized emission). […] The present inventors developed instrumentation in order to collect photophysical properties of MCs inside of cancer cells. They measured quantitative photophysical parameters (quantum yields and life times) inside of the cells with equipment which is usually adapted for measuring of (quantum yields and life times) in solids or in concentrated solutions.
The Yb^3+[Zn(II)MCpyzHA] complexes were collected together with cell supernatant (SN) and with HeLa cells treated with N-acetyl cysteine, both with and without exposure to UV light. For SN1 and cells1, incubation with NAC took place for 30 minutes, then the cells were washed, and incubation with Yb^3+[Zn(II)MCpyzHA] took place for 15 minutes. For SN2 and cells2, incubation with Yb^3+[Zn(II)MCpyzHA] took place for 15 minutes, and then NAC was added and incubation with NAC took place for 30 minutes. The results in are shown in FIGS. 20C (corrected and normalized excitation) and 20D (corrected and normalized emission). […]

[4] = Photophysical properties of the metallacrowns in solid state and in aqueous solutions; assay type: physicochemical; settings: room temperature, excitation at 370 nm
Procedure: FIG. 4. illustrates the normalized excitation (λem(Nd^3+)=1070 nm, λem(Yb^3+)=980 nm) and emission (λex=370 nm) spectra of Yb^3+[Zn(II)MCpyzHA], at the top, and Nd^3+[Zn(II)MCpyzHA] MCs, at the bottom, (solid or 200 μM solutions, room temperature).

[5] = as above; assay type: physicochemical
HeLa cells [6] = assay: NIR epifluorescence microscopy of HeLa cells (necrotic cell labelling, simultaneous staining and fixing); assay type: cell-based, Human; settings: 150 μM complex and 3 μM propidium iodide together, UV light (377 nm) 5 minutes
Procedure: Cells were seeded in a 8-well Lab Tek Chamber coverglass (Nunc, Dutsher S.A., Brumath, France) at a density of 6×10^4 cells/well and cultured at 37° C. in 5% humidified CO2 atmosphere.
The continued incubation enabled the internalization of the complexes.
All of the previously mentioned incubated HeLa cells were then washed with fresh OPTI-MEM® media and were incubated with 3 μM propidium iodide for 5 minutes. Propidium iodide is a commercially available stain (emitting in the visible range) for necrotic cells, and was used to confirm cell necrosis.
i. 377 nm with 50 nm band-pass filter with 50 nm bandwidth for the excitation and 805 nm long-pass filter 805 nm or 996 nm band-pass filter with 70 nm bandwidth for YbIII emission in the NIR range.
ii. […] for the excitation and 805 nm long-pass filter 805 nm or 996 nm band-pass filter with 70 nm bandwidth for YbIII emission in the NIR range. […]

[7] = Table 3, No UV: After 5 h incubation with HeLa cells without illumination
[8] = Table 3, UV: After 5 h incubation with HeLa cells with UV illumination (during 8 min)

Photostability ([1]; 150 μM in water and OPTI-MEM media, 5 hours of irradiation with 377 nm light): fully photostable
τ2 ([3]; Table 3, In HeLa cells): 0.808(8) μs
τ2 contribution (longer component) ([3]; Table 3, In HeLa cells): 100%
Quantum yield [3, 7]: 7.50(5) · 10^−3%
τ1 [3, 7]: 0.261(1) μs
τ1 contribution [3, 7]: 85%
τ2 [3, 7]: 0.98(1) μs
τ2 contribution [3, 7]: 15%
Quantum yield ([3]; Table 3, OptiMEM): 7.33(1) · 10^−3%
τ1 ([3]; Table 3, OptiMEM): 0.256(6) μs
τ1 contribution ([3]; Table 3, OptiMEM): 90%
τ2 ([3]; Table 3, OptiMEM): 1.1(1) μs
τ2 contribution ([3]; Table 3, OptiMEM): 10%
Quantum yield ([3]; Table 3, OptiMEM-UV 1 h 30 min): 7.7(1) · 10^−3%
τ1 ([3]; Table 3, OptiMEM-UV 1 h 30 min): 0.352(2) μs
τ1 contribution ([3]; Table 3, OptiMEM-UV 1 h 30 min): 67%
τ2 ([3]; Table 3, OptiMEM-UV 1 h 30 min): 0.874(7) μs
τ2 contribution ([3]; Table 3, OptiMEM-UV 1 h 30 min): 33%
Quantum yield [3, 8]: 6.2(1) · 10^−3%
τ1 [3, 8]: 0.376(3) μs
τ1 contribution [3, 8]: 60%
τ2 [3, 8]: 0.83(2) μs
τ2 contribution [3, 8]: 40%
Q (quantum yield), D2O ([4]; 200 μM in D2O): 6.17(9) · 10^−2%
Q (quantum yield), H2O ([4]; 200 μM in H2O): 7.7(1) · 10^−3%
Q (quantum yield), Solid ([4]; solid state): 0.444(9) %
τ (luminescence lifetime), D2O ([5]; 200 μM in D2O, room temperature, excitation at 355 nm): 1.29(1) μs
τ (luminescence lifetime), H2O ([5]; 200 μM in H2O, room temperature, excitation at 355 nm): 0.214(4) μs
q (number of coordinated water molecules) ([5]; calculated from lifetimes, estimated error ±0.2): 0.1
τ (luminescence lifetime), Solid ([5]; solid state, room temperature, excitation at 355 nm): 1.71(1) μs
Structure (SMILES): O=C([N-][O-])c1cnccn1.O=C([N-][O-])c1cnccn1.O=C([N-][O-])c1cnccn1.O=C([N-][O-])c1cnccn1.O=C([N-][O-])c1cnccn1.O=C([N-][O-])c1cnccn1.O=C([N-][O-])c1cnccn1.O=C([N-][O-])c1cnccn1.O=C([N-][O-])c1cnccn1.O=C([N-][O-])c1cnccn1.O=C([N-][O-])c1cnccn1.O=C([N-][O-])c1cnccn1.O=C([N-][O-])c1cnccn1.O=C([N-][O-])c1cnccn1.O=C([N-][O-])c1cnccn1.O=C([N-][O-])c1cnccn1.O=S(=O)([O-])C(F)(F)F.O=S(=O)([O-])C(F)(F)F.O=S(=O)([O-])C(F)(F)F.[Nd+3].[Zn+2].[Zn+2].[Zn+2].[Zn+2].[Zn+2].[Zn+2].[Zn+2].[Zn+2].[Zn+2].[Zn+2].[Zn+2].[Zn+2].[Zn+2].[Zn+2].[Zn+2].[Zn+2].c1ccncc1.c1ccncc1.c1ccncc1.c1ccncc1.c1ccncc1.c1ccncc1.c1ccncc1.c1ccncc1 [Nd^3+[Zn(II)MCpyzHA]]
Fixing and staining of HeLa cells (HeLa cells [2]; 150 μM, 15 minutes, UV light (377 nm) 8 minutes, further 1 hour): fixed and stained
Change of luminescent properties in media, cell supernatant or HeLa cells ([3]; with/without exposure to UV light): did not change in OPTI-MEM® media or inside of the HeLa cells

Photostability (fluorescence intensity) ([1]; 50 μM in water, 5 hours of irradiation at 530 nm): dropped half of its initial intensity
Structure (SMILES): CC[N+](C)(CC)CCC[n+]1c(-c2ccccc2)c2cc(N)ccc2c2ccc(N)cc21.[I-].[I-] [propidium iodide, reference compound]
Incubation time after which emission was observed in cells after UV illumination (HeLa cells [6]): 15 min
Specificity of the dye for cell state (HeLa cells [2]; 150 μM complex and 3 μM propidium iodide together, UV light (377 nm) 5 minutes): specific for dead and apoptotic cells
